“And” between values parts separate entries of the source, which are not always exact repeats. Equal entries are not always repeated.
Columns and labels:
lung DCs = settings: mouse model; cited from earlier work
IP = IP (Homo sapiens, UniProt P43119); settings: compared with treprostinil; cited from earlier work
[1] = in vivo; cited from earlier work
[2] = cited from earlier work
Th2 cells = settings: in vitro, Th2 cells differentiated under IL-4 and anti-IFN-γ; cited from earlier work
[3] = oral administration; cited from earlier work
DCs = settings: cited from earlier work
PGE2 receptor EP2 = PGE2 receptor EP2 (Homo sapiens, UniProt P43116); settings: cited from earlier work
Sequence of PGE2 receptor EP2 (P43116 whole entry): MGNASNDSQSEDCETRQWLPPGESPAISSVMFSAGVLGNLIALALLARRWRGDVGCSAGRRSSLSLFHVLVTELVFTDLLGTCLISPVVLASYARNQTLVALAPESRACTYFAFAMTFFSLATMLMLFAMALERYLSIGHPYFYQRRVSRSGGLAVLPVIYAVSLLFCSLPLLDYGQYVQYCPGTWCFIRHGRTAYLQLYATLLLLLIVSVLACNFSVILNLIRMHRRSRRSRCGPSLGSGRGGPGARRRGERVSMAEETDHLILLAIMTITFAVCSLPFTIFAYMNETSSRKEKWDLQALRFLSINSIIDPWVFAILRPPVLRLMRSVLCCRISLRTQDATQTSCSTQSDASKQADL

[4] = rat, chronic administration; cited from earlier work
ILC2 = settings: WT mice; cited from earlier work
STAT5 = assay: Phosphorylated STAT5 in CD4+ T cell lysate (ELISA); type: cell-based, mouse; settings: WT cells, 2 days, IL-33
Experimental: (§1) Cell culture supernatant was collected at day 2 for IL-2 measurement because IL-2 production by activated CD4^+ T cells peak at day 2 (unpublished data). At day 3, the culture supernatant was harvested for IL-4, IL-5 and IL-13 measurement. At day 2, the cells were harvested and the cell lysate was prepared for p-STAT5 measurement.
(§2) IL-2, IL-4, IL-5, and IL-13 in the culture supernatant were measured by DuoSet ELISA kits from R&D Systems according to the manufacturer's instructions. Phosphorylated STAT5 (p-STAT5) was measured by phosphor-STAT5A/B (Tyr694/Tyr699) InstantOne™ ELISA kit (Affymetrixes). Measurements below the limit of detection were assigned a value of half the lower limit of detection for purposes of statistical analyses.
Binding of IL-2 to IL-2 receptor leads to the activation of JAK1 and JAK3 and the activation of the downstream transcription factors STAT5 (21). To test whether cicaprost downregulates IL-2 receptor signaling, the levels of phosphorylated STAT5 were measured in CD4^+ T cells harvested 2 days after the cell activation and treatment with IL-33 plus either vehicle or cicaprost.

[5] = test system: naïve CD4^+ T cells of WT and IP KO mice; assay: IL-33-induced type 2 cytokine production by naive CD4+ T cells (ELISA of culture supernatant); type: cell-based, mouse
Experimental: (§3) CD4^+ T cells were purified from the splenic cells of WT, or IP KO mice by a mouse naive CD4^+ T cell isolation kit II (Miltenyi Biotec, Auburn, Calif.). The purified CD4^+CD62L^+ T cell population contains 97.5% CD3^+CD4^+ cells as determined by flow cytometry. The purified CD4 T cells were resuspended at 1×10^6 cells/ml in RPMI 1640 medium (Mediatech, Herndon, Va.) supplemented with 10% FBS (HyClone, Logan, Utah), 4 mM of L-glutamine, 1 mM of sodium pyruvate, […] of 2-ME, 10 mM of HEPES, 100 U/ml penicillin, and 100 μg/ml streptomycin. The cells were stimulated with plate-bound anti-CD3 (10 μg/ml) and anti-CD28 (2 μg/ml; BD Biosciences, San Diego, Calif.) in 96-well flat-bottom plates and treated with IL-33 (20 ng/ml) plus cicaprost (a generous gift provided by Dr. Manuela Huebner, Bayer HealthCare, Berlin, Germany) at various concentrations or vehicle (water) control. The cells were cultured for 3 days. For T cell proliferation experiments, naive CD4^+ T cells were stained with 1 μM CFSE before cell culture and cicaprost treatment.
as §1, §2
To determine the effect of PGI2 signaling on IL-33-induced Th2 differentiation, naïve CD4^+ T cells of WT and IP KO mice, both on BALB/c background, were activated with anti-CD3 and anti-CD28 either with or without IL-33 and treated with cicaprost or vehicle for 3 days.

TSLPR = TSLPR expression on T cells by flow cytometry; type: cell-based, mouse; settings: WT or IP KO T cell culture in the presence of IL-33 (data not shown)
Experimental: (§4) At day 3 of cell culture, the cells were harvested for flow cytometric staining with fluorochrome-labeled antibodies against CD4^+ (Biolegend, San Diego, Calif.), Gata3 (Affymetrix, Santa Clara, Calif.), CD25 (BD Biosciences, San Jose, Calif.), or TSLPR (R&D Systems, Minneapolis, Minn.). An LSR II flow cytometer (BD Biosciences) was used for flow cytometry and the data were analyzed with FlowJo software (FlowJo, LLC, Ashland Oreg.). For cell proliferation assay, CFSE intensity of the cultured cells was determined at day 3 by flow cytometry. Cell division index was calculated with FlowJo software. At day 3, the cells were stained with the cell viability dye 4,6-diamidino-2-phenylindole (DAPI), and 123count™ eBeads (Affymetrix) were added to the cell solution for live cell counting by flow cytometry.
(§5) To determine whether cicaprost attenuates the IL-2 signaling pathway, CD4^+ T cells activated and treated with either cicaprost or vehicle for 3 days were stained with fluorochrome-labeled anti-CD25 antibody and analyzed by flow cytometry.

NFAT = NFAT function assay (NFAT-luciferase reporter lentiviral vector); type: cell-based, mouse; settings: WT cells, after 3 days of cell culture
Experimental: To determine NFAT activation, a Cignal Lenti NFAT reporter (luc) kit (Qiagen, Hilden, Germany), was used to transduce naïve CD4^+ T cells. CD4^+ T cells (10^5) of WT and IP KO mice were transduced with 2×10^5 transduction units of lentiviral vector (MOI=2) and 30 μg transduction reagent in 60 μl of transduction medium without antibiotics for 24 h in 96 well plates coated with anti-CD3 and anti-CD28. The cells were then pooled, washed, seeded and treated with IL-33 plus either cicaprost or vehicle. After culture for 2 more days in the same plates, the cells were harvested and the cell lysate was used for luciferase assay with Luciferase Assay System with Reporter Lysis Buffer (Promega, Madison, Wis.). The luciferase activity indicates the levels of NFAT activation. To determine whether the suppressive effect of cicaprost on IL-2 production is associated with the inhibition of NFAT, a transcription factor that binds to the IL-2 gene promoter to activate IL-2 gene expression, an NFAT function assay was performed with an NFAT-luciferase reporter lentiviral vector system.

CD4^+ T cells [6] = assay: CD4+ T cell proliferation (CFSE dilution) and live cell counting; type: cell-based, mouse; settings: WT CD4+ T cells, 1000 nM, IL-33, day 3
Experimental: (§6) CD4^+ T cells were purified from the splenic cells of WT, or IP KO mice by a mouse naive CD4^+ T cell isolation kit II (Miltenyi Biotec, Auburn, Calif.). The purified CD4^+CD62L^+ T cell population contains 97.5% CD3^+CD4^+ cells as determined by flow cytometry. The purified CD4 T cells were resuspended at 1×10^6 cells/ml in RPMI 1640 medium (Mediatech, Herndon, Va.) supplemented with 10% FBS (HyClone, Logan, Utah), 4 mM of L-glutamine, 1 mM of sodium pyruvate, […] of 2-ME, 10 mM of HEPES, 100 U/ml penicillin, and 100 μg/ml streptomycin. […]
as §4, with “At day 3, the cells were stained with the cell viability dye 4,6-diamidino-2-phenylindole (DAPI), and 123count™ eBeads (Affymetrix) were added to the cell solution for live cell counting by flow cytometry.” left out
To further analyze the effect of cicaprost on cell proliferation, naïve CD4^+ T cells were CFSE-labeled, activated with anti-CD3 and anti-CD28, and treated with IL-33 plus either vehicle or cicaprost. Cell proliferation was determined by CFSE dilution.

CD25 = CD25 surface expression on CD4+ T cells by flow cytometry; type: cell-based, mouse; settings: 3 days, vs vehicle control
Experimental: as §3, §4, §5

CD4^+ T cells [7] = assay: Intracellular cytokine staining for flow cytometry of IL-33-stimulated T cells; type: cell-based, mouse; settings: in the presence of IL-33, 3 days, vs vehicle
Experimental: as §6
as §4, with “At day 3, the cells were stained with the cell viability dye 4,6-diamidino-2-phenylindole (DAPI), and 123count™ eBeads (Affymetrix) were added to the cell solution for live cell counting by flow cytometry.” left out

Gata3 = Gata3 expression in CD4+ T cells by flow cytometry; type: cell-based, mouse; settings: WT mice, 1000 nM, IL-33, 3 days
Experimental: as §3
as §4, with “At day 3, the cells were stained with the cell viability dye 4,6-diamidino-2-phenylindole (DAPI), and 123count™ eBeads (Affymetrix) were added to the cell solution for live cell counting by flow cytometry.” left out
The differentiation of naïve CD4^+ T cells into Th2 cells under IL-4 culture conditions requires the expression of the transcription factor Gata3 (18). To investigate whether Gata3 plays a role in the inhibitory effect of cicaprost on IL-33-induced type 2 cytokine production, the expression of Gata3 in CD4^+ T cells activated with IL-33 and treated with cicaprost at various concentrations or vehicle for 3 days was determined. […]

CD4^+ T cells [8] = assay: IL-2 production by CD4+ T cells (ELISA, day 2 supernatant); type: cell-based, mouse; settings: WT CD4+ T cells, IL-33, day 2
Experimental: as §6
IL-2, IL-4, IL-5, and IL-13 in the culture supernatant were measured by DuoSet ELISA kits from R&D Systems according to the manufacturer's instructions. Phosphorylated STAT5 (p-STAT5) was measured by phosphor-STAT5A/B (Tyr694/Tyr699) InstantOne™ ELISA kit (Affymetrixes). […]
In vitro activation of mouse naïve CD4^+ T cells results in the expression of IL-2, a growth factor critical for cell survival and proliferation (19). To investigate whether cicaprost inhibits IL-33-induced type 2 cytokine production by suppressing CD4^+ T cell IL-2 production and cell activation, IL-2 levels were measured in the culture supernatant.

[9] = test system: type 2 innate lymphoid cells (ILC2); settings: cited from earlier work
[10] = IP KO CD4+ T cells, anti-CD3/anti-CD28 + IL-33, 3 days
[11] = WT CD4+ T cells, anti-CD3/anti-CD28 + IL-33, 3 days
[12] = in the presence of either 10 ng/ml or 50 ng/ml exogenous IL-2, IL-33, 3 days

Sequence of IP (P43119 whole entry): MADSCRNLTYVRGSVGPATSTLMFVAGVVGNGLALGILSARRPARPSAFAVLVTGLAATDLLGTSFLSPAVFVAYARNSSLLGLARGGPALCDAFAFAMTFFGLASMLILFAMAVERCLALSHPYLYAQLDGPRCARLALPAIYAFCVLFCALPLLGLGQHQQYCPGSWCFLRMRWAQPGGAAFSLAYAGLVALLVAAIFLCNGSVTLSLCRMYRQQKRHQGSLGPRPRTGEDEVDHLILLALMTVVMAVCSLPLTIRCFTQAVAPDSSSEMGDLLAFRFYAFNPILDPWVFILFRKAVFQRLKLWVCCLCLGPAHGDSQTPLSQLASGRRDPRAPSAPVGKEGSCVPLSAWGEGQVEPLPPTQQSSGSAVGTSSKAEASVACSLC

CC#CCC(C)[C@H](O)/C=C/[C@@H]1[C@H]2C/C(=C/CCCC(=O)O)C[C@H]2C[C@H]1O (stereo partly drawn) [Iloprost]
maturation and migration of lung DCs to the mediastinal LNs (lung DCs): inhibited | specificity for IP (IP): greater specificity for IP than treprostinil | safety of administration to pulmonary hypertension patients [1]: safe | half-life [2]: 13 min | production of effector cytokine IL-4 (Th2 cells): inhibited | production of effector cytokine IL-5 (Th2 cells): inhibited | iloprost reaching the systemic circulation [3]: less than 20% | LPS-induced expression of CD40 by DCs (DCs): suppressed | LPS-induced expression of CD86 by DCs (DCs): suppressed | LPS-induced expression of MHC class II molecules by DCs (DCs): suppressed | ability of DCs to stimulate antigen-specific CD4 T cell proliferation (DCs): inhibited | ability of DCs to stimulate production of the Th2 cytokine IL-5 (DCs): inhibited | ability of DCs to stimulate production of the Th2 cytokine IL-13 (DCs): inhibited

CCCCC[C@H](O)/C=C/[C@@H]1[C@H]2C/C(=C/CCCC(=O)O)O[C@H]2C[C@H]1O [PGI2, prostacyclin]
half-life (biologic half-life) [2]: 46 seconds and 60-90 seconds

CCCCC[C@H](O)CC[C@@H]1[C@H]2Cc3cccc(OCC(=O)O)c3C[C@H]2C[C@H]1O [Treprostinil]
safety of administration to pulmonary hypertension patients [1]: safely used | activation of PGE2 receptor EP2 (PGE2 receptor EP2): also activated | half-life compared with epoprostenol [2]: longer | degree of experimentally-induced pulmonary hypertension [4]: decreasing

CCC#CC[C@H](C)[C@H](O)C#C[C@@H]1[C@H]2C/C(=C/COCC(=O)O)C[C@H]2C[C@H]1O [cicaprost]
ILC2 response (ILC2): inhibited | STAT5 phosphorylation (STAT5): dose-dependently attenuated | IL-4 production [5, 10]: did not change | IL-5 production [5, 10]: did not change | IL-13 production [5, 10]: did not change | IL-4 production [5, 11]: dose dependently decreased | IL-5 production [5, 11]: dose dependently decreased | IL-13 production [5, 11]: dose dependently decreased | IL-5 production [5, 12]: still significantly inhibited | IL-13 production [5, 12]: still significantly inhibited | TSLPR MFI (TSLPR): did not change | percentages of TSLPR expressing cells (TSLPR): did not change | NFAT function (luciferase activity) (NFAT): significantly suppressed | cell division index (CD4^+ T cells [6]): significantly decreased | total number of live cells (CD4^+ T cells [6]): significantly decreased | CD25 mean fluorescence intensity (CD25): dose-dependently decreased | percentages of CD25 expressing cells (CD25): dose-dependently decreased | total numbers of CD25 expressing cells (CD25): dose-dependently decreased | total numbers of IL-4+ T cells (CD4^+ T cells [7]): dose-dependently decreased | total numbers of IL-13+ T cells (CD4^+ T cells [7]): dose-dependently decreased | production of effector cytokine IL-4 (Th2 cells): inhibited | production of effector cytokine IL-5 (Th2 cells): inhibited | Gata3 mean fluorescence intensity (Gata3): significantly decreased | percentages of Gata3-expressing CD4+ T cells (Gata3): significantly decreased | total number of Gata3-expressing CD4+ T cells (Gata3): significantly decreased | IL-2 production (CD4^+ T cells [8]): dose-dependently suppressed | IL-33-induced cytokine responses of ILC2 [9]: inhibited | LPS-induced expression of CD40 by DCs (DCs): suppressed | LPS-induced expression of CD86 by DCs (DCs): suppressed | LPS-induced expression of MHC class II molecules by DCs (DCs): suppressed | ability of DCs to stimulate antigen-specific CD4 T cell proliferation (DCs): inhibited | ability of DCs to stimulate production of the Th2 cytokine IL-5 (DCs): inhibited | ability of DCs to stimulate production of the Th2 cytokine IL-13 (DCs): inhibited

— patent US20200009105A1, “PROSTACYCLIN, PROSTACYCLIN ANALOGS, AND METHODS OF TREATING OR PREVENTING REJECTION OF SOLID ORGAN TRANSPLANTS” (VANDERBILT UNIVERSITY, priority 2017, published 2020)
